Like-named read-outs stand apart in the source and are kept apart here.
What was measured:
HIV-1 IIIB strain = experiment: Antiviral assay, HIV-1 replication in TZMbl cells (luciferase); assay type: cell-based; conditions: for EC50: read-out: HIV-1 EC50 TZMbl Cells
Procedure: Drug-mediated inhibition of virus-induced cytotoxicity was assayed in TZM-BL cells. […] Serial dilutions of drugs were added immediately after infection. Luciferase activity was measured as reported [67]. Two days after infection, the culture medium was removed from each well and 100 µl of Bright Glo reagent (Promega, Luis Obispo, CA) was added to the cells for measurement of luminescence using a Victor 2 luminometer (Perkin). […] Cell viability in CEM cells was quantified 5 days after infection with the MTT-dye reduction method.

TZMbl cells = experiment: Cytotoxicity in TZMbl cells; assay type: cell-based; conditions: highest concentration tested
[1] = Cytotoxicity in TZMbl cells; assay type: cell-based; conditions: human
[2] = Cell viability in CEM cells (MTT); assay type: cell-based; conditions: human, MTT, 5 days
Procedure: (§1) Drug-mediated inhibition of virus-induced cytotoxicity was assayed in TZM-BL cells. Triplicate wells of 96-well plates containing 1 × 10^4 TZMbl cells were infected with HIV-1 IIIB strain at a multiplicity of infection of 0.1. Serial dilutions of drugs were added immediately after infection. Luciferase activity was measured as reported. Two days after infection, the culture medium was removed from each well and 100 µl of Bright Glo reagent (Promega, Luis Obispo, CA) was added to the cells for measurement of luminescence using a Victor 2 luminometer (Perkin). The 50% effective concentration (EC50) was defined as the concentration that caused a 50% reduction of luciferase activity (relative light units) compared to virus control wells. Cell viability in CEM cells was quantified 5 days after infection with the MTT-dye reduction method.

CEM cells = experiment: Cell viability in CEM cells (MTT); assay type: cell-based; conditions: highest concentration tested
Procedure: as §1

[3] = molecular target: T1, HIV-1 RT-associated RNase H activity (wt RT) (Human immunodeficiency virus type 1 group M subtype B, UniProt P04585); experiment: HIV-1 DNA polymerase-independent RNase H activity, wt RT; assay type: biochemical; conditions: RNase H IC50, wt RT
T1 construct: RT is a heterodimeric (p66/p51) multifunctional enzyme; made in house; host or cells: Escherichia coli strain M15
Procedure: p6HRT-prot vector was kindly provided by Dr. Stuart Le Grice Laboratory. Heterodimeric RT was expressed essentially as described. Briefly, Escherichia coli strain M15 containing the p6HRT-prot vector were grown up to an OD600 of 0.7 and induced with isopropyl β-D-1-thiogalactopyranoside (IPTG) 1.7 mM for 4 h. Cell pellets were resuspended in Lysis buffer (50 mM sodium phosphate pH 7.8, 0.5 mg/mL lysozyme), incubated on ice for 20 min, added 0.3 M final NaCl, sonicated and centrifuged at 30,000× g for 1 h. The supernatant was loaded into a Ni^2+-sepharose column pre-equilibrated with loading buffer (50 mM sodium phosphate pH 7.8, 0.3 M NaCl, 10% glycerol, 10 mM imidazole) and washed thoroughly with wash buffer (50 mM sodium phosphate pH 6.0, 0.3 M NaCl, 10% glycerol, 80 mM imidazole). RT was gradient-eluted with elute buffer (wash buffer with 0.5 M imidazole). Fractions were collected, protein purity was checked by SDS-PAGE and found to be higher than 90%. RT containing fractions were pooled and diluted 1:1 with dilute buffer (50 mM sodium phosphate pH 7.0, 10% glycerol) then loaded into a Hi-trap Heparine HP GE (Healthcare Lifescience) pre-equilibrated with 10-column volume of loading buffer 2 (50 mM sodium phosphate pH 7.0, 10% glycerol, 150 mM NaCl). Column was then washed with loading buffer 2 and RT was gradient-eluted with elute buffer 2 (50 mM sodium phosphate pH 7.0, 10% glycerol, 150 mM NaCl). Fractions were collected, protein was dialyzed and stored in buffer containing 50 mM Tris HCl pH 7.0, 25 mM NaCl, 1 mM EDTA, 50% glycerol. Catalytic activities and protein concentration were determined. Enzyme-containing fractions were pooled and aliquots were stored at −80 °C.
The RT-associated RNase H activity of wt and mutated HIV RTs was measured as described, in 100 µL reaction volume containing 50 mM Tris HCl pH 7.8, 6 mM MgCl2, 1 mM dithiothreitol (DTT), 80 mM KCl, hybrid RNA/DNA (5’-[…]-3’-Fluorescein, 5’-[…]-3’-Dabcyl), and different amounts of enzymes according to a linear range of dose-response curve—20 ng of wt RT; 50 ng K103N RT; 100 ng V108A RT; 4 ng Y181C RT; 100 ng Q475A RT; 100 ng A502F RT. The reaction mixture was incubated for 1 h at 37 °C, the reaction was stopped by addition of EDTA and products were measured with a Victor 3 (Perkin) at 490/528 nm.

[4] = Human immunodeficiency virus 1, TZM-bl, TZMbl cells, HIV-1 IIIB

Structure (SMILES)	EC50 (HIV-1 IIIB strain; [4]) [µM]	percentage of cells viability in presence of the highest concentration of inhibitor tested, TZMbl (TZMbl cells) [%]	CC50 [1] [µM]	CC50 at 5 days [2] [µM]	percentage of cells viability in presence of the highest concentration of inhibitor tested, CEM cells (CEM cells) [%]	IC50 [3] [µM]	SI (selectivity index) (HIV-1 IIIB strain; TZMbl cells)	melting point [°C]	HIV-1 EC50 TZMbl Cells (HIV-1 IIIB strain; TZMbl cells, HIV-1 IIIB)	EC50 (HIV-1 IIIB strain; Human immunodeficiency virus 1, IIIB, TZM-bl) [µM]
CCOC(=O)c1ccc(C(F)(F)F)nc1Nc1cc(Cl)ccc1C [Compound 9]	> 10	75	> 50	> 50	100	24 ± 1.7	–	–	–	–
Cc1ccc(Cl)cc1Nc1nc(C(F)(F)F)ccc1C(=O)Oc1ccc(Cl)cc1 [Compound 13]	10	–	36 ± 1	> 50	70	9.3 ± 2.5	3.6	–	–	–
Cc1ccc(Cl)cc1Nc1nc(C(F)(F)F)ccc1C(=O)Oc1ccccc1O [Compound 16, 2-Hydroxyphenyl 2-((5-chloro-2-methylphenyl)amino)-6-(trifluoromethyl)nicotinate]	> 10	–	12.2 ± 2.1	> 12.5	100	16.2 ± 6.6	–	179 to 180	–	–
Cc1ccc(Cl)cc1Nc1nc(C(F)(F)F)ccc1C(=O)Oc1cccc(O)c1 [Compound 17, 3-Hydroxyphenyl 2-((5-chloro-2-methylphenyl)amino)-6-(trifluoromethyl)nicotinate]	> 50	62	> 50	> 50	100	26.6 ± 5.6	–	188 to 190	–	–
COc1ccc(OC(=O)c2ccc(C(F)(F)F)nc2Nc2cc(Cl)ccc2C)cc1 [Compound 23]	> 10	70	> 50	> 50	100	11.6 ± 4.3	–	–	–	–
CSc1ccc(OC(=O)c2ccc(C(F)(F)F)nc2Nc2cc(Cl)ccc2C)cc1 [Compound 24, 4-(Methylthio)phenyl 2-((5-chloro-2-methylphenyl)amino)-6-(trifluoromethyl)nicotinate]	> 10	–	50	> 50	100	9.6 ± 0.8	–	125 to 127	–	–
Cc1ccc(Cl)cc1Nc1nc(C(F)(F)F)ccc1C(=O)NO [Compound 25, 2-((5-Chloro-2-methylphenyl)amino)-N-hydroxy-6-(trifluoromethyl)nicotinamide]	> 10	–	14 ± 2.8	35	–	0.77 ± 0.06	–	154 to 155	inactive	–
COc1ccccc1CNC(=O)c1ccc(C(F)(F)F)nc1Nc1cc(Cl)ccc1C [Compound 39, 2-((5-Chloro-2-methylphenyl)amino)-N-(2-methoxybenzyl)-6-(trifluoromethyl)nicotinamide]	> 10	–	14.8 ± 3.1	> 12.5	55	18.7 ± 1.7	–	148 to 150	–	–
Cc1ccc(Cl)cc1Nc1nc(C(F)(F)F)ccc1C(=O)NCc1ccc(Cl)cc1 [Compound 40, N-(4-chlorobenzyl)-2-((5-chloro-2-methylphenyl)amino)-6-(trifluoromethyl)nicotinamide]	> 4.7	–	4.7 ± 0.4	7.75	–	6.4 ± 0.5	–	130 to 131	–	–
Cc1ccc(Cl)cc1Nc1nc(C(F)(F)F)ccc1C(=O)NCc1ccc(C(F)(F)F)cc1 [Compound 42, 2-((5-Chloro-2-methylphenyl)amino)-6-(trifluoromethyl)-N-(4-(trifluoromethyl)benzyl)nicotinamide]	> 3.6	–	3.6 ± 1.2	5	–	21.9 ± 0.2	–	170 to 171	–	–
Cc1ccc(Cl)cc1Nc1nc(C(F)(F)F)ccc1C(=O)NCc1ccc(Cl)cc1Cl [Compound 45, 2-((5-Chloro-2-methylphenyl)amino)-N-(2,4-dichlorobenzyl)-6-(trifluoromethyl)nicotinamide]	> 10	–	5 ± 0.6	9.15	–	19.3 ± 0.6	–	153 to 155	–	–
Cc1ccc(Cl)cc1Nc1nc(C(F)(F)F)ccc1C(=O)NCc1ccc(Cl)c(Cl)c1 [Compound 46, 2-((5-Chloro-2-methylphenyl)amino)-N-(3,4-dichlorobenzyl)-6-(trifluoromethyl)nicotinamide]	> 6.3	–	6.3 ± 1.3	10.6	–	25.6 ± 3.4	–	179 to 180	–	–
COc1cc(CNC(=O)c2ccc(C(F)(F)F)nc2Nc2cc(Cl)ccc2C)ccc1O [Compound 47, 2-((5-Chloro-2-methylphenyl)amino)-N-(4-hydroxy-3-methoxybenzyl)-6-(trifluoromethyl)nicotinamide]	> 10	–	15 ± 3	17.4	–	18.2 ± 1.7	–	142 to 143	–	–
Cc1ccc(Cl)cc1Nc1nc(C(F)(F)F)ccc1C(=O)N1CCN(c2ccc(Cl)c(Cl)c2)CC1 [Compound 52, (2-((5-Chloro-2-methylphenyl)amino)-6-(trifluoromethyl)pyridin-3-yl)(4-(3,4-dichlorophenyl)piperazin-1-yl)methanone]	10 ± 1.2	–	15.7 ± 5.1	> 50	76	7.5 ± 2	1.6	165 to 167	–	–
O=C1Nc2ccc(Cl)cc2[C@@](C#CC2CC2)(C(F)(F)F)O1 [EFV, efavirenz, reference compound]	–	100	> 50	> 50	100	–	–	–	–	0.15 ± 0.02

Source: PMC7144554, “2-(Arylamino)-6-(trifluoromethyl)nicotinic Acid Derivatives: New HIV-1 RT Dual Inhibitors Active on Viral Replication” (Molecules, 2020)
